Source: patent US11053251B2, “GPR35 modulators” (Prometheus Biosciences, Inc., priority 2019, dated 2021)
pEC50: −log10 of the molar value.

Key:
[1] = target: Human GPR35 (Homo sapiens, UniProt Q9HC97, S294R); assay: Alternative Beta-Arrestin Assay (JumpIn 294R Tango U2OS cells, LiveBLAzer-FRET B/G); assay type: cell-based; conditions: Human GPR35 expressing JumpIn 294R Tango U2OS cells, 5 hours treatment
In short: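 Beta-arrestin recruitment measured as FRET ratio change using CCF4-AM loading for 2 h, following 5-hour compound treatment of GPR35 (S294R) JumpIn Tango U2OS cells. Zaprinast served as positive control; EC50 values from four-parameter dose-response fits.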

[2] = target: Human GPR35 (Homo sapiens, UniProt Q9HC97); assay: Beta-Arrestin Assay (Tango U2OS cells, LiveBLAzer-FRET B/G); assay type: cell-based; conditions: Human GPR35 expressing Tango U2OS cells, 5 hours treatment
Chain of Human GPR35 (Homo sapiens, UniProt Q9HC97) (Q9HC97 whole entry): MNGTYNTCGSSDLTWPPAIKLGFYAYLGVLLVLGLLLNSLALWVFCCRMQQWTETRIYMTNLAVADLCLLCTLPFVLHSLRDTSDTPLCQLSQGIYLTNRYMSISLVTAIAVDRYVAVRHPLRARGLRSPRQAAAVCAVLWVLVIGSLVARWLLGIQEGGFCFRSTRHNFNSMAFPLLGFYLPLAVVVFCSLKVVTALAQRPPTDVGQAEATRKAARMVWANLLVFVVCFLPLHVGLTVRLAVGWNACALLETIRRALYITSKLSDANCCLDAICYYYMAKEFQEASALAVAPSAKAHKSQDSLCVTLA
Experimental: Human GPR35 expressing Tango U2OS cells were plated in 384-well format in clear bottom plates at a cell density of 10,000 cells/well and allowed to grow overnight. The next day, cells were treated with serially diluted test compounds for 5 hours. LiveBLAzer-FRET B/G (CCF4-AM) detection reagents were then added and cells were allowed to incubate for 2 hours before reading plates on a BioTek Cytation 5 plate reader. Zaprinast was used as a positive control for dose-response curves. In order to determine EC50 values, data were fit to a four-parameter dose-response curve.

Chain of Human GPR35 (Homo sapiens, UniProt Q9HC97, S294R) (Q9HC97 whole entry S294R): as the sequence (Q9HC97 whole entry) above, with S294R counted along it

| SMILES | pEC50 [1] | pEC50 [2] |
| --- | --- | --- |
| CCOc1cc(CO)ccc1-c1nc2[nH]nnc2c(=O)[nH]1 [Compound 145, 5-(2-ethoxy-4-(hydroxymethyl)phenyl)-3,6-dihydro-7H-[1,2,3]triazolo[4,5-d]pyrimidin-7-one] | ≥ 5.00 | ≥ 5.00 |
| O=C(O)Cc1ccc(-c2nc3[nH]nnc3c(=O)[nH]2)cc1 [Compound 149, 2-(4-(7-oxo-6,7-dihydro-3H-[1,2,3]triazolo[4,5-d]pyrimidin-5-yl)phenyl)acetic acid] | ≥ 5.00 | ≥ 5.00 |
| CCOc1cc(N2CCC[C@@H]2C(=O)O)ccc1-c1nc2[nH]nnc2c(=O)[nH]1 [Compound 163, (3-ethoxy-4-(7-oxo-6,7-dihydro-3H-[1,2,3]triazolo[4,5-d]pyrimidin-5-yl)phenyl)-D-proline] | ≥ 5.00 | ≥ 5.00 |
| CCOc1cc(-c2cccc(C(N)=O)c2)ccc1-c1nc2[nH]nnc2c(=O)[nH]1 [Compound 156, 3′-ethoxy-4′-(7-oxo-6,7-dihydro-3H-[1,2,3]triazolo[4,5-d]pyrimidin-5-yl)-[1,1′-biphenyl]-3-carboxamide] | ≥ 5.00 | ≥ 5.00 |
| CCOc1cc(-c2ccc(C(=O)OC)cc2)ccc1-c1nc2[nH]nnc2c(=O)[nH]1 [Compound 108, Methyl 3′-ethoxy-4′-(7-oxo-6,7-dihydro-3H-[1,2,3]triazolo[4,5-d]pyrimidin-5-yl)-[1,1′-biphenyl]-4-carboxylate] | ≥ 5.00 | ≥ 5.00 |
| CCOc1cc(NCCCC(=O)O)ccc1-c1nc2[nH]nnc2c(=O)[nH]1 [Compound 164, 4-((3-ethoxy-4-(7-oxo-6,7-dihydro-3H-[1,2,3]triazolo[4,5-d]pyrimidin-5-yl)phenyl)amino)butanoic acid] | ≥ 5.00 | ≥ 5.00 |
| CCOc1cc(-c2ccc(C(=O)O)nc2)ccc1-c1nc2[nH]nnc2c(=O)[nH]1 [Compound 125, 5-(3-Ethoxy-4-(7-oxo-6,7-dihydro-3H-[1,2,3]triazolo[4,5-d]pyrimidin-5-yl)phenyl)picolinic acid] | ≥ 5.00 | ≥ 5.00 |
| CCOc1cc(C(=O)N2CCCC2)ccc1-c1nc2[nH]nnc2c(=O)[nH]1 [Compound 133, 5-(2-Ethoxy-4-(pyrrolidine-1-carbonyl)phenyl)-3,6-dihydro-7H-[1,2,3]triazolo[4,5-d]pyrimidin-7-one] | 4.30 to 5.00 | ≥ 5.00 |
| CCOc1cc(C(=O)N2CCCC(C(=O)O)C2)ccc1-c1nc2[nH]nnc2c(=O)[nH]1 (stereo not shown) [Compound 172, 1-(3-ethoxy-4-(7-oxo-6,7-dihydro-3H-[1,2,3]triazolo[4,5-d]pyrimidin-5-yl)benzoyl)piperidine-3-carboxylic acid] | 4.30 to 5.00 | ≥ 5.00 |
| CCOc1cc(-c2ccc(N)c(C(=O)O)c2)ccc1-c1nc2[nH]nnc2c(=O)[nH]1 [Compound 181, 4-amino-3′-ethoxy-4′-(7-oxo-6,7-dihydro-3H-[1,2,3]triazolo[4,5-d]pyrimidin-5-yl)-[1,1′-biphenyl]-3-carboxylic acid] | ≥ 5.00 | ≥ 5.00 |
| CCOc1cc(C(N)=O)ccc1-c1nc2[nH]nnc2c(=O)[nH]1 [Compound 135, 3-Ethoxy-4-(7-oxo-6,7-dihydro-3H-[1,2,3]triazolo[4,5-d]pyrimidin-5-yl)benzamide] | ≥ 5.00 | ≥ 5.00 |
| CCOc1cc(-c2cccc(C(=O)O)c2C)ccc1-c1nc2[nH]nnc2c(=O)[nH]1 [Compound 154, 3′-ethoxy-2-methyl-4′-(7-oxo-6,7-dihydro-3H-[1,2,3]triazolo[4,5-d]pyrimidin-5-yl)-[1,1′-biphenyl]-3-carboxylic acid] | ≥ 5.00 | ≥ 5.00 |
| CCOc1cc(-c2cccc(OC(C)C(=O)O)c2)ccc1-c1nc2[nH]nnc2c(=O)[nH]1 (racemic) [Compound 212, (±)-2-((3′-Ethoxy-4′-(7-oxo-6,7-dihydro-3H-[1,2,3]triazolo[4,5-d]pyrimidin-5-yl)-[1,1′-biphenyl]-3-yl)oxy)propanoic acid] | ≥ 5.00 | – |

Continued, values first:

| pEC50 [1] | pEC50 [2] | SMILES |
| --- | --- | --- |
| ≥ 5.00 | ≥ 5.00 | CCOc1cc(N2CC[C@H](C(=O)O)C2)ccc1-c1nc2[nH]nnc2c(=O)[nH]1 [Compound 166, (S)-1-(3-ethoxy-4-(7-oxo-6,7-dihydro-3H-[1,2,3]triazolo[4,5-d]pyrimidin-5-yl)phenyl)pyrrolidine-3-carboxylic acid] |
| ≥ 5.00 | ≥ 5.00 | CCOc1cc(C(=O)O)ccc1-c1nc2[nH]nnc2c(=O)[nH]1 [Compound 132, 3-Ethoxy-4-(7-oxo-6,7-dihydro-3H-[1,2,3]triazolo[4,5-d]pyrimidin-5-yl)benzoic acid] |
| 4.30 to 5.00 | ≥ 5.00 | O=c1[nH]c(-c2ccc(-c3ccccc3)cc2)nc2[nH]nnc12 [Compound 129, 5-([1,1′-biphenyl]-4-yl)-3,6-dihydro-7H-[1,2,3]triazolo[4,5-d]pyrimidin-7-one] |
| ≥ 5.00 | ≥ 5.00 | CCOc1cc(C(=O)Nc2ccccc2)ccc1-c1nc2[nH]nnc2c(=O)[nH]1 [Compound 134, 3-Ethoxy-4-(7-oxo-6,7-dihydro-3H-[1,2,3]triazolo[4,5-d]pyrimidin-5-yl)-N-phenylbenzamide] |
| ≥ 5.00 | ≥ 5.00 | CCOc1cc(-c2ccc(F)c(C(=O)O)c2)ccc1-c1nc2[nH]nnc2c(=O)[nH]1 [Compound 183, 3′-ethoxy-4-fluoro-4′-(7-oxo-6,7-dihydro-3H-[1,2,3]triazolo[4,5-d]pyrimidin-5-yl)-[1,1′-biphenyl]-3-carboxylic acid] |
| ≥ 5.00 | ≥ 5.00 | CCOc1cc(NCC(=O)O)ccc1-c1nc2[nH]nnc2c(=O)[nH]1 [Compound 170, (3-ethoxy-4-(7-oxo-6,7-dihydro-3H-[1,2,3]triazolo[4,5-d]pyrimidin-5-yl)phenyl)glycine] |
| ≥ 5.00 | ≥ 5.00 | CCOc1cc(-c2ccc(C(=O)O)cc2)ccc1-c1nc2[nH]nnc2c(=O)[nH]1 [Compound 111, 3′-Ethoxy-4′-(7-oxo-6,7-dihydro-3H-[1,2,3]triazolo[4,5-d]pyrimidin-5-yl)-[1,1′-biphenyl]-4-carboxylic acid] |
| ≥ 5.00 | ≥ 5.00 | CCOc1cc(-c2ccccc2CC(=O)OC)ccc1-c1nc2[nH]nnc2c(=O)[nH]1 [Compound 118, Methyl 2-(3′-ethoxy-4′-(7-oxo-6,7-dihydro-3H-[1,2,3]triazolo[4,5-d]pyrimidin-5-yl)-[1,1′-biphenyl]-2-yl)acetate] |
| ≥ 5.00 | ≥ 5.00 | CCOc1cc(Cc2ccc(C(=O)O)cc2)ccc1-c1nc2[nH]nnc2c(=O)[nH]1 [Compound 177, 4-(3-ethoxy-4-(7-oxo-6,7-dihydro-3H-[1,2,3]triazolo[4,5-d]pyrimidin-5-yl)benzyl)benzoic acid] |
| ≥ 5.00 | ≥ 5.00 | CCOc1cc(C#N)ccc1-c1nc2[nH]nnc2c(=O)[nH]1 [Compound 142, 3-ethoxy-4-(7-oxo-6,7-dihydro-3H-[1,2,3]triazolo[4,5-d]pyrimidin-5-yl)benzonitrile] |
| ≥ 5.00 | ≥ 5.00 | CCOc1cc(C(=O)NS(=O)(=O)N(C)C)ccc1-c1nc2[nH]nnc2c(=O)[nH]1 [Compound 152, N-(N,N-dimethylsulfamoyl)-3-ethoxy-4-(7-oxo-6,7-dihydro-3H-[1,2,3]triazolo[4,5-d]pyrimidin-5-yl)benzamide] |
| ≥ 5.00 | ≥ 5.00 | CCOc1cc(C(=O)Nc2ccccn2)ccc1-c1nc2[nH]nnc2c(=O)[nH]1 [Compound 140, 3-ethoxy-4-(7-oxo-6,7-dihydro-3H-[1,2,3]triazolo[4,5-d]pyrimidin-5-yl)-N-(pyridin-2-yl)benzamide] |
| ≥ 5.00 | ≥ 5.00 | CCOc1cc(-c2cc(N)cc(C(=O)OC)c2)ccc1-c1nc2[nH]nnc2c(=O)[nH]1 [Compound 122, Methyl 5-amino-3′-ethoxy-4′-(7-oxo-6,7-dihydro-3H-[1,2,3]triazolo[4,5-d]pyrimidin-5-yl)-[1,1′-biphenyl]-3-carboxylate] |
| ≥ 5.00 | ≥ 5.00 | CCOc1cc(-c2ccccc2CC(=O)O)ccc1-c1nc2[nH]nnc2c(=O)[nH]1 [Compound 119, 2-(3′-Ethoxy-4′-(7-oxo-6,7-dihydro-3H-[1,2,3]triazolo[4,5-d]pyrimidin-5-yl)-[1,1′-biphenyl]-2-yl)acetic acid] |
| ≥ 5.00 | ≥ 5.00 | CCOc1cc(-c2ccc(C(=O)OC)nc2)ccc1-c1nc2[nH]nnc2c(=O)[nH]1 [Compound 124, Methyl 5-(3-ethoxy-4-(7-oxo-6,7-dihydro-3H-[1,2,3]triazolo[4,5-d]pyrimidin-5-yl)phenyl)picolinate] |
| ≥ 5.00 | ≥ 5.00 | CCOc1cc(-c2nnn[nH]2)ccc1-c1nc2[nH]nnc2c(=O)[nH]1 [Compound 143, 5-(2-ethoxy-4-(1H-tetrazol-5-yl)phenyl)-3,6-dihydro-7H-[1,2,3]triazolo[4,5-d]pyrimidin-7-one] |
| ≥ 5.00 | ≥ 5.00 | CCOc1cc(-c2ccc(CC(=O)O)cc2)ccc1-c1nc2[nH]nnc2c(=O)[nH]1 [Compound 115, 2-(3′-Ethoxy-4′-(7-oxo-6,7-dihydro-3H-[1,2,3]triazolo[4,5-d]pyrimidin-5-yl)-[1,1′-biphenyl]-4-yl)acetic acid] |
| ≥ 5.00 | ≥ 5.00 | CCOc1cc(Cc2ccccc2)ccc1-c1nc2[nH]nnc2c(=O)[nH]1 [Compound 174, 5-(4-benzyl-2-ethoxyphenyl)-3,6-dihydro-7H-[1,2,3]triazolo[4,5-d]pyrimidin-7-one] |
